Data taken from EP0385850A2, “Benzimidazole and azabenzimidazole derivatives, process for their preparation, synthesis intermediates, pharmaceutical compositions containing them, useful for the treatment of cardiovascular diseases and duodenal ulcers” (LABORATOIRES UPSA, priority 1989, dated 1990).

Key:
[1] = tested on: rats mâles de souche OFA; test: anti-ulcer activity against a necrotising agent (e.g. absolute ethanol), oral, rat; assay type: in vivo; conditions: v.o., 30 min before necrotising agent, stomachs removed 1 h after, dose reducing lesions by 50 %, determined graphically, read-out: activité anti-ulcère vis à vis d'un agent nécrosant DA 50 Mg/Kg v.o.
Description: (§1) Des lots de 10 à 30 rats mâles de souche OFA (Iffa Credo), pesant 160-180 g, sont mis à la diète hydrique 24 h avant l'administration orale du produit étudié. Trente minutes plus tard, un agent ulcérigène médicamenteux ou un agent nécrosant (exemple : éthanol absolu) est administré par voie orale à des doses qui entraînent chez les animaux témoins une ulcération gastrique maximale. Les estomacs sont prélevés, selon le test, respectivement 6 et 1 h après le dernier traitement. Les lésions gastriques sont alors évaluées macroscopiquement (cotation et mesure de l'ampleur des ulcères).
(§2) Ils sont exprimés sous forme de dose active 50 déterminée graphiquement. Cette dose exprime la dose nécessaire pour réduire de 50 % les lésions ulcéreuses observées chez les animaux témoins.

[2] = tested on: rats mâles de souche OFA; test: anti-ulcer activity against a non-steroidal anti-inflammatory (ulcerogenic drug), oral, rat; assay type: in vivo; conditions: v.o., 30 min before ulcerogenic drug, stomachs removed 6 h after, dose reducing lesions by 50 %, determined graphically, read-out: activité anti-ulcère vis à vis d'un anti-inflammatoire non stéroïdien DA 50 Mg/Kg v.o.
Description: as §1, §2

Cn1c(=S)[nH]c2ccc(-n3ccnc3)cc21 [Exemple 124, (imidazolyl-1)-5 méthyl-3 benzimidazole thione-2]
ED50 [1]: 4.5 mg/kg

CSc1nc2ccc(-n3ccnc3)cc2[nH]1 [Exemple 128, (Imidazolyl-1)-5 (méthylthio)-2 benzimidazole]
ED50 [1]: 4.5 mg/kg
ED50 [2]: 18.3 mg/kg

C=CCSc1nc2ccc(-n3ccnc3)cc2[nH]1 [Exemple 129, (imidazolyl-1)-5 (allylthio)-2 benzimidazole]
ED50 [1]: 0.33 mg/kg

C#CCSc1nc2ccc(-n3ccnc3)cc2[nH]1 [Exemple 130, (Imidazolyl-1)-5 (propargylthio)-2 benzimidazole]
ED50 [1]: 0.48 mg/kg
ED50 [2]: 9.24 mg/kg
